Reference: PMC5513037, “Examining the influence of specificity ligands and ATP-competitive ligands on the overall effectiveness of bivalent kinase inhibitors” (Proteome Science, 2017)

Tests used:
Assay in all cases: KAM-matrix competition in K562 lysate;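 on 0.001 uM KAM: median log10 fold change of treatment over DMSO control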;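 on 0.01 uM KAM: median log10 fold change of treatment over DMSO control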;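 on 0.1 uM KAM: median log10 fold change of treatment over DMSO control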;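 on 1 uM KAM: median log10 fold change of treatment over DMSO control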;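 on 10 uM KAM: median log10 fold change of treatment over DMSO control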
Format in all cases: binding
CDK14 = biological target: T1, CDK14 (Homo sapiens, UniProt O94921)
T1 construct: endogenous in cells; host or cells: K562
T1 sequence (O94921 whole entry): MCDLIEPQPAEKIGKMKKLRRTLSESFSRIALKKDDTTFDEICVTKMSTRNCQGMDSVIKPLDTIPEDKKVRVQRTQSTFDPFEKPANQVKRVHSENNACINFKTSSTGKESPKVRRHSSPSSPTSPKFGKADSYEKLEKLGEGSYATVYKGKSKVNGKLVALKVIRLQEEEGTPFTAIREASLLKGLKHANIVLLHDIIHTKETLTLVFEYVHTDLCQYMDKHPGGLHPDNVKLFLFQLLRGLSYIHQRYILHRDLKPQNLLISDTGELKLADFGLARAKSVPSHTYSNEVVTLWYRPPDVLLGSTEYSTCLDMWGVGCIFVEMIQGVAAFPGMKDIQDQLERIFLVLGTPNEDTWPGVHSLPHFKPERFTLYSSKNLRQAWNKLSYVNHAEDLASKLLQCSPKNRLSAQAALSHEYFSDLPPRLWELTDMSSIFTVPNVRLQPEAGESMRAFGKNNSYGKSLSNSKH
Experimental: (§1) Supplement 12953_2017_125_MOESM1_ESM.zip/MS_Supp Info.xlsx, sheet "KAM" | column: 10 uM KAM; 1 uM KAM; 0.1 uM KAM; 0.01 uM KAM; 0.001 uM KAM; RB50

TAOK3 = biological target: T2, TAOK3 (Homo sapiens, UniProt Q9H2K8)
T2 construct: endogenous in cells; host or cells: K562
T2 sequence (Q9H2K8 1-898): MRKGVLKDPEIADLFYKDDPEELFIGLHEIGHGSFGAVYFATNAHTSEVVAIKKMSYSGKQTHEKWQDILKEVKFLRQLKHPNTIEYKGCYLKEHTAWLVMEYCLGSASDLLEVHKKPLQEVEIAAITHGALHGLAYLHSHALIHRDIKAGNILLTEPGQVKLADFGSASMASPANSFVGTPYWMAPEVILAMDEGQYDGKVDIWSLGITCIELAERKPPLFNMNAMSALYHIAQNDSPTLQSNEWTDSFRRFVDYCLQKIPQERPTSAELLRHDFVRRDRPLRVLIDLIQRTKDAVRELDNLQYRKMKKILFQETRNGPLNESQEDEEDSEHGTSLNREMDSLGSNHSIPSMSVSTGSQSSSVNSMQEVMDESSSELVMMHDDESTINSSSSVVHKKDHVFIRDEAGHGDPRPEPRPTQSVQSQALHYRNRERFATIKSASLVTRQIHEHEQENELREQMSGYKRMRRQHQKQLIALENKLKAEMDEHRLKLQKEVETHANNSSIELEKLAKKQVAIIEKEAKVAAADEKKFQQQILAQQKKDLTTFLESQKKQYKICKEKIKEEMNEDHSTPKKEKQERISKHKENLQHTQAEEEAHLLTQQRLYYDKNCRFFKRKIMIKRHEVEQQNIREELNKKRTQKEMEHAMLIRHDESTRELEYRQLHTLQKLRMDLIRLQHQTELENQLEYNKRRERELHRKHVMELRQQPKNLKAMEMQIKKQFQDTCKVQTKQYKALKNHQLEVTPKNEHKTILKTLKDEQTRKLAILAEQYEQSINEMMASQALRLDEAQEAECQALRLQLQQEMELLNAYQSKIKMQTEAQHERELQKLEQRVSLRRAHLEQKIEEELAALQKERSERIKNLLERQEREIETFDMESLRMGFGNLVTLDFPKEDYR
Experimental: as §1

ACVR1 = biological target: T3, ACVR1 (Homo sapiens, UniProt Q04771)
T3 construct: endogenous in cells; host or cells: K562
T3 sequence (Q04771 21-509): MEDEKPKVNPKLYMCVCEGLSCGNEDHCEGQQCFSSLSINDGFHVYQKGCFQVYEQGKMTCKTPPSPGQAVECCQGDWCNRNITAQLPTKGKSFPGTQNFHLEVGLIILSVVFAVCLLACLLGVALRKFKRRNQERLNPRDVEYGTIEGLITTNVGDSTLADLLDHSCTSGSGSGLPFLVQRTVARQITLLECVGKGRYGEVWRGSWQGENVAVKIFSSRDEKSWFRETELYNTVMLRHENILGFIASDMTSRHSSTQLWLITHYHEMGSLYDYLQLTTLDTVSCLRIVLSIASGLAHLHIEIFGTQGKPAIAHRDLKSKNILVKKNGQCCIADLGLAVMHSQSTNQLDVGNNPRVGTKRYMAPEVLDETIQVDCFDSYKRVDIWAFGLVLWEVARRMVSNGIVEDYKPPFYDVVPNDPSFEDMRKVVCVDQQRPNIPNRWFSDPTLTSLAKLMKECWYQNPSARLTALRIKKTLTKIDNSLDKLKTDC
Experimental: as §1

MAP3K2 = biological target: T4, MAP3K2 (Homo sapiens, UniProt Q9Y2U5)
T4 construct: endogenous in cells; host or cells: K562
T4 sequence (Q9Y2U5 1-619): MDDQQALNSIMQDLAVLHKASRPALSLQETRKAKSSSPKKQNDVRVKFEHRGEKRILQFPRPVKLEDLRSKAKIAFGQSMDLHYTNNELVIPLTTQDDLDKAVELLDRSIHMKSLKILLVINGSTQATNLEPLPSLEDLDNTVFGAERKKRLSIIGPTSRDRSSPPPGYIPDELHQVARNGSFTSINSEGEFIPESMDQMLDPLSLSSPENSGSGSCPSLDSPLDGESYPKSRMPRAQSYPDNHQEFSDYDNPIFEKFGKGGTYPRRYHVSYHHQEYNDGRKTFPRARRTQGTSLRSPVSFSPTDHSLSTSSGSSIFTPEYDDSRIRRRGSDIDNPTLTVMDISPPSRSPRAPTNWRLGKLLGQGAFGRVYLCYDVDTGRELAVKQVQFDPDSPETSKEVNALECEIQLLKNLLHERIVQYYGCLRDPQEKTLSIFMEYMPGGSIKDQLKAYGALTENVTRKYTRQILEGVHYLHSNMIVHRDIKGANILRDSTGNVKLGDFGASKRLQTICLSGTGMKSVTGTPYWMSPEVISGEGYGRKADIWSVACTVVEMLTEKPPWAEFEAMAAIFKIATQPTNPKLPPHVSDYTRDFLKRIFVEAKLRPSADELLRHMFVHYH
Experimental: as §1

MAST2 = biological target: T5, MAST2 (Homo sapiens, UniProt Q6P0Q8);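 on 0.001 uM KAM: median log10 fold change of treatment over DMSO control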;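 on 0.01 uM KAM: median log10 fold change of treatment over DMSO control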;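 on 0.1 uM KAM: median log10 fold change of treatment over DMSO control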;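 on 1 uM KAM: median log10 fold change of treatment over DMSO control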;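 on 10 uM KAM: median log10 fold change of treatment over DMSO control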
T5 construct: endogenous in cells; host or cells: K562 cells (combined S0.8 and P0.8 lysate)
T5 sequence (Q6P0Q8 whole entry): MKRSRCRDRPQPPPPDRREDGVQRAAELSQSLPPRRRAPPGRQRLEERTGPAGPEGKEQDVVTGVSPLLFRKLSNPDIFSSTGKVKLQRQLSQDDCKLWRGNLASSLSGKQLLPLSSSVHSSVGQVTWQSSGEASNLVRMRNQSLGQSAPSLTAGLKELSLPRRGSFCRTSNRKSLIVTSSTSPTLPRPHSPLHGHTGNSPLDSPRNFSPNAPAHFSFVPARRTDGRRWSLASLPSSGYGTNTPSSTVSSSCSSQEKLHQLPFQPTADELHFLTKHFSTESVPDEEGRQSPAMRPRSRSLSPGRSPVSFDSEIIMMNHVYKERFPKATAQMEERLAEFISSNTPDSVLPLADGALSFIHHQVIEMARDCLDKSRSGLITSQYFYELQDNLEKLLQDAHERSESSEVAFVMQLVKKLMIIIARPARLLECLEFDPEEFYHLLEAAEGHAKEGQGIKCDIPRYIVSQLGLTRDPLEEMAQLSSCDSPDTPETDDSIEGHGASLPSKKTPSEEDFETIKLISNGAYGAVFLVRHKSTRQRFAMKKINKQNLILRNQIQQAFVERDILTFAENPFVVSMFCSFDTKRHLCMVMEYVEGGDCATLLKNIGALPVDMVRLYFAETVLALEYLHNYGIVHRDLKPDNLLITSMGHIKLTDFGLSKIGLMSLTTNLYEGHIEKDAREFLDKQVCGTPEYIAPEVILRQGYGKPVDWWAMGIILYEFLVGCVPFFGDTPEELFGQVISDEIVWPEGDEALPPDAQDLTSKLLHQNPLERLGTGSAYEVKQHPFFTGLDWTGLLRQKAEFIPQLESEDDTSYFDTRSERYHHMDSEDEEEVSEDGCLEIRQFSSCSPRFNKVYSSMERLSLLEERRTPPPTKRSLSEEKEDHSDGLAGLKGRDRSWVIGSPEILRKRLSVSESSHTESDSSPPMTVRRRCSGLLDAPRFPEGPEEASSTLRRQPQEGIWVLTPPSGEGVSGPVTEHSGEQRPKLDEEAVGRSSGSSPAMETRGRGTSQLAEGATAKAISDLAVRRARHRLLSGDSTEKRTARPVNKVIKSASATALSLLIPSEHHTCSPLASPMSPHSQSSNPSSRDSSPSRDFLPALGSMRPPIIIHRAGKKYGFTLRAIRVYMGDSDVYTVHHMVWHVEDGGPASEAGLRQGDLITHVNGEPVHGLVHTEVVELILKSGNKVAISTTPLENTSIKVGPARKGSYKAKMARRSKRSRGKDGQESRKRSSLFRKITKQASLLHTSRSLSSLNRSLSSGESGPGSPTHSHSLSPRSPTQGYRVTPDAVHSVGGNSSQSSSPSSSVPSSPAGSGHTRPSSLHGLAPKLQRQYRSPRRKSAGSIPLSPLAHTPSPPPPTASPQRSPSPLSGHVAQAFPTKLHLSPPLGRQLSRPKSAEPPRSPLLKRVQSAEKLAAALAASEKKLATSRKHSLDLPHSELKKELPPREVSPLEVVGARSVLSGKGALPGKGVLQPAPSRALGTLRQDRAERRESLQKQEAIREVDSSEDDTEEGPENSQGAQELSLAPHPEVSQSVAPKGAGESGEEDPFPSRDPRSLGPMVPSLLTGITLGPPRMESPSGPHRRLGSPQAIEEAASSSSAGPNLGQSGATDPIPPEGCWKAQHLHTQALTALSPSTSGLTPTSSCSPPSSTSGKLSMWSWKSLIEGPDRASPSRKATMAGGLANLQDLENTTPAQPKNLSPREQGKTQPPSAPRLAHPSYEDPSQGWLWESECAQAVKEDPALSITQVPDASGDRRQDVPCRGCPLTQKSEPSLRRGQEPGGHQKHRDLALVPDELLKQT
Experimental: as §1

STK25 = biological target: T6, STK25 (Homo sapiens, UniProt O00506);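 on 0.001 uM KAM: median log10 fold change of treatment over DMSO control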;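 on 0.01 uM KAM: median log10 fold change of treatment over DMSO control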;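 on 0.1 uM KAM: median log10 fold change of treatment over DMSO control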;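 on 1 uM KAM: median log10 fold change of treatment over DMSO control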;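 on 10 uM KAM: median log10 fold change of treatment over DMSO control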
T6 construct: endogenous in cells; host or cells: K562 cell lysate
T6 sequence (O00506 whole entry): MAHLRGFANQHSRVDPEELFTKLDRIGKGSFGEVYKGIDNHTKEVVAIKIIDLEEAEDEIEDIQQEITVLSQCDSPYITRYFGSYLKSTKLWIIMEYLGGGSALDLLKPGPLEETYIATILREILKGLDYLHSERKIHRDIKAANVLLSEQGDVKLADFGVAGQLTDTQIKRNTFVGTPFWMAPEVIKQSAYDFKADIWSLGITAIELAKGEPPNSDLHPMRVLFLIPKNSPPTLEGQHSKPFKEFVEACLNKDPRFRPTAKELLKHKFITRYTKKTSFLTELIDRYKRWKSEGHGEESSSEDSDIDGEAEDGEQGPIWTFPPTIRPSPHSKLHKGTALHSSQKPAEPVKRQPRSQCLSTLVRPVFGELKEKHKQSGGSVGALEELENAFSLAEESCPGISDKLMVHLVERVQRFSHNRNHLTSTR
Experimental: as §1

[1] = read-out: RB50 (the source's name)
[2] = KAM 0.001-10 uM, read-out: RB50 (the source's name)

## N#CCc1ccc(Nc2nc(NCCCN)cc(Nc3cc(C4CC4)[nH]n3)n2)cc1 [KAM]
CDK14; 0.001 uM KAM
  median Log10 fold change: 0.09538
CDK14; 0.01 uM KAM
  median Log10 fold change: 0.03255
CDK14; 0.1 uM KAM
  median Log10 fold change: -0.148
CDK14; 1 uM KAM
  median Log10 fold change: -0.2642
CDK14; 10 uM KAM
  median Log10 fold change: -0.4049
CDK14; [1]
  IC50: 1660 nM
TAOK3; 0.001 uM KAM
  median Log10 fold change: -0.0153
TAOK3; 0.01 uM KAM
  median Log10 fold change: 0.005812
TAOK3; 0.1 uM KAM
  median Log10 fold change: -0.1317
TAOK3; 1 uM KAM
  median Log10 fold change: -0.2502
TAOK3; 10 uM KAM
  median Log10 fold change: -0.3407
TAOK3; [1]
  IC50: 2690 nM
ACVR1; 0.001 uM KAM
  median Log10 fold change: 0.003413
ACVR1; 0.01 uM KAM
  median Log10 fold change: -0.1656
ACVR1; 0.1 uM KAM
  median Log10 fold change: -0.6449
ACVR1; 1 uM KAM
  median Log10 fold change: -0.6498
ACVR1; 10 uM KAM
  median Log10 fold change: -0.7414
ACVR1; [1]
  IC50: 27 nM
MAP3K2; 0.001 uM KAM
  median Log10 fold change: -0.0298
MAP3K2; 0.01 uM KAM
  median Log10 fold change: 0.004839
MAP3K2; 0.1 uM KAM
  median Log10 fold change: -0.103
MAP3K2; 1 uM KAM
  median Log10 fold change: -0.3096
MAP3K2; 10 uM KAM
  median Log10 fold change: -0.4027
MAP3K2; [1]
  IC50: 1330 nM
MAST2; [2]
  IC50: > 10000 nM
MAST2; relative to 0 uM KAM = 0
  0.001 uM KAM: -0.0424
  0.01 uM KAM: 0.0396
  0.1 uM KAM: -0.03782
  1 uM KAM: -0.1315
  10 uM KAM: -0.1411
STK25; [2]
  IC50: > 10000 nM
STK25; relative to 0 uM KAM = 0
  0.001 uM KAM: -0.05569
  0.01 uM KAM: -0.0234
  0.1 uM KAM: -0.1788
  1 uM KAM: -0.2616
  10 uM KAM: -0.2742
